Test results from paper PMC7567103 (Nature Communications, 2020).

Assays:
Type in all cases: cell-based
GHRHR L119A = biological target: T1, GHRHR L119A (Homo sapiens, UniProt Q02643, L119A); test: cAMP accumulation, L119A; details: mean ± SEM, n ≥ 3
T1 construct: GHRHR(23-423)-; HA signal peptide (replaces native signal M1-G22) (N); expressed in transfected cells; host or cells: HEK 293T, pcDNA3.1, transient
Source text: (§1) Fig. 2 Molecular recognition of GHRH by GHRHR and comparison of that with LA-PTH–PTH1R and GLP-1–GLP-1R. a Detailed interaction between GHRH and the TMD pocket of GHRHR with hydrogen bonds shown as dotted lines. b, c Pairwise comparison of GHRH bound to GHRHR with GLP-1 and LA-PTH in complex with their corresponding receptors, showing the relative positions of peptide ligands. Lime green, GHRHR; blue, GHRH; red, PTH1R and LA-PTH; purple, GLP-1R and GLP-1. d–f The effects of mutation in the ligand-binding pocket on cAMP accumulation. cAMP levels were measured in wild-type (WT) receptor and alanine mutants in ECL1, 2, and 3 (d), TM1, 2, and 3 (e), and TM5, 6, and 7 (f). cAMP signals were normalized to the maximum response of WT and concentration–response curves were analyzed using a three-parameter logistic equation. Data shown are means ± S.E.M. of at least three independent experiments (n = 3–5), conducted in triplicate. Source data are provided as a Source data file.
(§2) GHRH-stimulated cAMP accumulation was measured by a LANCE Ultra cAMP kit (PerkinElmer). […] After 1 h RT incubation, TR-FRET signals (excitation: 320 nm, emission: 615 and 665 nm) were measured by an EnVision (PerkinElmer).

GHRHR E361A = biological target: T2, GHRHR E361A (Homo sapiens, UniProt Q02643, E361A); test: cAMP accumulation, E361A; details: mean ± SEM, n ≥ 3
T2 construct: GHRHR(23-423)-; HA signal peptide (replaces native signal M1-G22) (N); expressed in transfected cells; host or cells: HEK 293 T
Source text: as §1, §2

GHRHR K182A = biological target: T3, GHRHR K182A (Homo sapiens, UniProt Q02643, K182A); test: cAMP accumulation, K182A; details: mean ± SEM, n ≥ 3
T3 construct: GHRHR(23-423)-; HA signal peptide (replaces native signal M1-G22) (N); expressed in transfected cells; host or cells: HEK 293T, pcDNA3.1, transient
Source text: as §1, §2

GHRHR D350A = biological target: T4, GHRHR D350A (Homo sapiens, UniProt Q02643, D350A); test: cAMP accumulation, D350A; details: mean ± SEM, n ≥ 3
T4 construct: GHRHR(23-423)-; HA signal peptide (replaces native signal M1-G22) (N); expressed in transfected cells; host or cells: HEK 293 T
Source text: as §1, §2

GHRHR L358A = biological target: T5, GHRHR L358A (Homo sapiens, UniProt Q02643, L358A); test: cAMP accumulation, L358A; details: mean ± SEM, n ≥ 3
T5 construct: GHRHR(23-423)-; HA signal peptide (replaces native signal M1-G22) (N); expressed in transfected cells; host or cells: HEK 293 T
Source text: as §1, §2

GHRHR R357A = biological target: T6, GHRHR R357A (Homo sapiens, UniProt Q02643, R357A); test: cAMP accumulation, R357A; details: mean ± SEM, n ≥ 3
T6 construct: GHRHR(23-423)-; HA signal peptide (replaces native signal M1-G22) (N); expressed in transfected cells; host or cells: HEK 293 T
Source text: as §1, §2

GHRHR I289A = biological target: T7, GHRHR I289A (Homo sapiens, UniProt Q02643, I289A); test: cAMP accumulation, I289A; details: mean ± SEM, n ≥ 3
T7 construct: GHRHR(23-423)-; HA signal peptide (replaces native signal M1-G22) (N); expressed in transfected cells; host or cells: HEK 293T, pcDNA3.1, transient
Source text: as §1, §2

GHRHR T192A = biological target: T8, GHRHR T192A (Homo sapiens, UniProt Q02643, T192A); test: cAMP accumulation, T192A; details: mean ± SEM, n ≥ 3
T8 construct: GHRHR(23-423)-; HA signal peptide (replaces native signal M1-G22) (N); expressed in transfected cells; host or cells: HEK 293T, pcDNA3.1, transient
Source text: as §1, §2

[1] = biological target: T9, GHRHR wild-type (HA-Flag-GHRHR) (Homo sapiens, UniProt Q02643); test: GHRH-stimulated cAMP accumulation (LANCE), HEK 293T; details: LANCE Ultra cAMP TR-FRET, 30 min RT, mean ± SEM, n ≥ 3
T9 construct: GHRHR(23-423) (WT); HA signal peptide (replaces native signal M1-G22) (N); expressed in transfected cells; host or cells: HEK 293T, pcDNA3.1, transient
Source text: as §1
GHRH-stimulated cAMP accumulation was measured by a LANCE Ultra cAMP kit (PerkinElmer). […] After 1 h RT incubation, TR-FRET signals (excitation: 320 nm, emission: 615 and 665 nm) were measured by an EnVision (PerkinElmer). […]
245 to determine pEC50 and Emax values. Emax values for mutants are expressed as a
246 percentage of the wild-type (WT). Cell surface expression was assessed by FACS to […]

GHRHR H210A = biological target: T10, GHRHR H210A (Homo sapiens, UniProt Q02643, H210A); test: cAMP accumulation, H210A; details: mean ± SEM, n ≥ 3
T10 construct: GHRHR(23-423)-; HA signal peptide (replaces native signal M1-G22) (N); expressed in transfected cells; host or cells: HEK 293T, pcDNA3.1, transient
Source text: as §1, §2

GHRHR S209A = biological target: T11, GHRHR S209A (Homo sapiens, UniProt Q02643, S209A); test: cAMP accumulation, S209A; details: mean ± SEM, n ≥ 3
T11 construct: GHRHR(23-423)-; HA signal peptide (replaces native signal M1-G22) (N); expressed in transfected cells; host or cells: HEK 293T, pcDNA3.1, transient
Source text: as §1, §2

GHRHR F187A = biological target: T12, GHRHR F187A (Homo sapiens, UniProt Q02643, F187A); test: cAMP accumulation, F187A; details: mean ± SEM, n ≥ 3
T12 construct: GHRHR(23-423)-; HA signal peptide (replaces native signal M1-G22) (N); expressed in transfected cells; host or cells: HEK 293T, pcDNA3.1, transient
Source text: as §1, §2

GHRHR D274A = biological target: T13, GHRHR D274A (Homo sapiens, UniProt Q02643, D274A); test: cAMP accumulation, D274A; details: mean ± SEM, n ≥ 3
T13 construct: GHRHR(23-423)-; HA signal peptide (replaces native signal M1-G22) (N); expressed in transfected cells; host or cells: HEK 293T, pcDNA3.1, transient
Source text: as §1, §2

GHRHR H194A = biological target: T14, GHRHR H194A (Homo sapiens, UniProt Q02643, H194A); test: cAMP accumulation, H194A; details: mean ± SEM, n ≥ 3
T14 construct: GHRHR(23-423)-; HA signal peptide (replaces native signal M1-G22) (N); expressed in transfected cells; host or cells: HEK 293T, pcDNA3.1, transient
Source text: as §1, §2

GHRHR V129A = biological target: T15, GHRHR V129A (Homo sapiens, UniProt Q02643, V129A); test: cAMP accumulation, V129A; details: mean ± SEM, n ≥ 3
T15 construct: GHRHR(23-423)-; HA signal peptide (replaces native signal M1-G22) (N); expressed in transfected cells; host or cells: HEK 293T, pcDNA3.1, transient
Source text: as §1, §2

GHRHR F126A = biological target: T16, GHRHR F126A (Homo sapiens, UniProt Q02643, F126A); test: cAMP accumulation, F126A; details: mean ± SEM, n ≥ 3
T16 construct: GHRHR(23-423)-; HA signal peptide (replaces native signal M1-G22) (N); expressed in transfected cells; host or cells: HEK 293T, pcDNA3.1, transient
Source text: as §1, §2

GHRHR N346A = biological target: T17, GHRHR N346A (Homo sapiens, UniProt Q02643, N346A); test: cAMP accumulation, N346A; details: mean ± SEM, n ≥ 3
T17 construct: GHRHR(23-423)-; HA signal peptide (replaces native signal M1-G22) (N); expressed in transfected cells; host or cells: HEK 293T, pcDNA3.1, transient
Source text: as §1, §2

T14 sequence (Q02643 23-423 H194A): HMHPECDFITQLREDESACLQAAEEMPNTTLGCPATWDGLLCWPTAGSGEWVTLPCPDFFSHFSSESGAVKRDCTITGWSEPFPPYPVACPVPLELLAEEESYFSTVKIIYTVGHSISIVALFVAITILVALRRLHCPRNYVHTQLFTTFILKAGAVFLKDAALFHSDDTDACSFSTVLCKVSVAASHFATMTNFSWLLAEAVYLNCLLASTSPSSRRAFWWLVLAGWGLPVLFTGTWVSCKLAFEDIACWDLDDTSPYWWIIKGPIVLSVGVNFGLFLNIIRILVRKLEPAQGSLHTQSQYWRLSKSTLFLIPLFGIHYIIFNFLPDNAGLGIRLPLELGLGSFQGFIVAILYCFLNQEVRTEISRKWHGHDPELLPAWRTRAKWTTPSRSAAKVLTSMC
T15 sequence (Q02643 23-423 V129A): as the sequence (Q02643 23-423 H194A) above, with V107A, A172H counted along it
T6 sequence (Q02643 23-423 R357A): as the sequence (Q02643 23-423 H194A) above, with A172H, R335A counted along it
T11 sequence (Q02643 23-423 S209A): as the sequence (Q02643 23-423 H194A) above, with A172H, S187A counted along it
T3 sequence (Q02643 23-423 K182A): as the sequence (Q02643 23-423 H194A) above, with K160A, A172H counted along it
T5 sequence (Q02643 23-423 L358A): as the sequence (Q02643 23-423 H194A) above, with A172H, L336A counted along it
T7 sequence (Q02643 23-423 I289A): as the sequence (Q02643 23-423 H194A) above, with A172H, I267A counted along it
T10 sequence (Q02643 23-423 H210A): as the sequence (Q02643 23-423 H194A) above, with A172H, H188A counted along it
T1 sequence (Q02643 23-423 L119A): as the sequence (Q02643 23-423 H194A) above, with L97A, A172H counted along it
T4 sequence (Q02643 23-423 D350A): as the sequence (Q02643 23-423 H194A) above, with A172H, D328A counted along it
T2 sequence (Q02643 23-423 E361A): as the sequence (Q02643 23-423 H194A) above, with A172H, E339A counted along it
T13 sequence (Q02643 23-423 D274A): as the sequence (Q02643 23-423 H194A) above, with A172H, D252A counted along it
T8 sequence (Q02643 23-423 T192A): as the sequence (Q02643 23-423 H194A) above, with T170A, A172H counted along it
T17 sequence (Q02643 23-423 N346A): as the sequence (Q02643 23-423 H194A) above, with A172H, N324A counted along it
T12 sequence (Q02643 23-423 F187A): as the sequence (Q02643 23-423 H194A) above, with F165A, A172H counted along it
T9 sequence (Q02643 23-423): as the sequence (Q02643 23-423 H194A) above, with A172H counted along it
T16 sequence (Q02643 23-423 F126A): as the sequence (Q02643 23-423 H194A) above, with F104A, A172H counted along it

CC[C@H](C)[C@H](NC(=O)[C@H](C)NC(=O)[C@H](CC(=O)O)NC(=O)[C@H](C)NC(=O)[C@@H](N)Cc1ccc(O)cc1)C(=O)N[C@@H](Cc1ccccc1)C(=O)N[C@H](C(=O)N[C@@H](CC(N)=O)C(=O)N[C@@H](CO)C(=O)N[C@@H](Cc1ccc(O)cc1)C(=O)N[C@@H](CCCNC(=N)N)C(=O)N[C@@H](CCCCN)C(=O)N[C@H](C(=O)N[C@@H](CC(C)C)C(=O)NCC(=O)N[C@@H](CCC(N)=O)C(=O)N[C@@H](CC(C)C)C(=O)N[C@@H](CO)C(=O)N[C@@H](C)C(=O)N[C@@H](CCCNC(=N)N)C(=O)N[C@@H](CCCCN)C(=O)N[C@@H](CC(C)C)C(=O)N[C@@H](CC(C)C)C(=O)N[C@@H](CCC(N)=O)C(=O)N[C@@H](CC(=O)O)C(=O)N[C@H](C(=O)N[C@@H](CCSC)C(=O)N[C@@H](CO)C(=O)N[C@@H](CCCNC(=N)N)C(=O)N[C@@H](CCC(N)=O)C(=O)N[C@@H](CCC(N)=O)C(=O)NCC(=O)N[C@@H](CCC(=O)O)C(=O)N[C@@H](CO)C(=O)N[C@@H](CC(N)=O)C(=O)N[C@@H](CCC(N)=O)C(=O)N[C@@H](CCC(=O)O)C(=O)N[C@@H](CCCNC(=N)N)C(=O)NCC(=O)N[C@@H](C)C(=O)N[C@@H](CCCNC(=N)N)C(=O)N[C@@H](C)C(=O)N[C@@H](CCCNC(=N)N)C(=O)N[C@@H](CC(C)C)C(N)=O)[C@@H](C)CC)C(C)C)[C@@H](C)O [GHRH, Growth hormone-releasing hormone]
EC50 (GHRHR L119A): 0.724 nM
Emax (GHRHR L119A): 98.67±1.48 % WT
EC50 (GHRHR E361A): 1.05 nM
Emax (GHRHR E361A): 18.75±4.38 % WT
EC50 (GHRHR K182A): 39.8 nM
Emax (GHRHR K182A): 100.02±1.40 % WT
EC50 (GHRHR D350A): 148 nM
Emax (GHRHR D350A): 47.38±8.48 % WT
EC50 (GHRHR L358A): 1.05 nM
Emax (GHRHR L358A): 100.3±1.21 % WT
EC50 (GHRHR R357A): 135 nM
Emax (GHRHR R357A): 60.05±5.19 % WT
EC50 (GHRHR I289A): 9.77 nM
Emax (GHRHR I289A): 93.36±2.36 % WT
EC50 (GHRHR T192A): 0.229 nM
Emax (GHRHR T192A): 103.11±1.18 % WT
EC50 ([1]; 0.5 mM IBMX): 0.182 nM
Emax [1]: 100 % WT
EC50 (GHRHR H210A): 1 nM
Emax (GHRHR H210A): 99.66±1.10 % WT
EC50 (GHRHR S209A): 0.11 nM
Emax (GHRHR S209A): 100.52±0.43 % WT
EC50 (GHRHR F187A): 1.15 nM
Emax (GHRHR F187A): 101.68±1.52 % WT
EC50 (GHRHR D274A): 0.468 nM
Emax (GHRHR D274A): 99.78±2.32 % WT
EC50 (GHRHR H194A): 0.251 nM
Emax (GHRHR H194A): 98.01±1.25 % WT
EC50 (GHRHR V129A): 166 nM
Emax (GHRHR V129A): 24.33±6.11 % WT
EC50 (GHRHR F126A): 1.1 nM
Emax (GHRHR F126A): 98.92±0.84 % WT
EC50 (GHRHR N346A): 1.41 nM
Emax (GHRHR N346A): 101.21±3.69 % WT
